Measurements from the NIST ThermoML archive (doi:10.1021/acs.jced.8b01110).
± gives the expanded uncertainty stated by the source.

How the values were obtained:
[1] = wn = mass fraction of the nth substance listed; details: 313.15 K, 88.4 kPa, Liquid; for viscosity: Capillary tube (Ostwald / Ubbelohde) method; for mass density: Pycnometric method
[2] = refractive index (Na D-line) (dimensionless); wn = mass fraction of the nth substance listed; details: 313.15 K, 88.4 kPa, Liquid, Standard Abbe refractometry

| viscosity ([1]; w1 = 0.3289) [mPa·s] | mass density ([1]; w1 = 0.3289) [kg/m3] | refractive index ([2]; w1 = 0.3289) | Compound | viscosity ([1]; w1 = 0.5082) [mPa·s] | mass density ([1]; w1 = 0.5082) [kg/m3] | refractive index ([2]; w1 = 0.5082) |
| --- | --- | --- | --- | --- | --- | --- |
|  |  |  | O=[N+]([O-])[O-].[Na+] [sodium nitrate] + O | 2.14 ± 0.43 | 1408.4 ± 10 | 1.39164 ± 0.00086 |
| 2.703 ± 0.54 | 1317 ± 10 | 1.37791 ± 0.00085 | O=S(=O)([O-])[O-].[Na+].[Na+] [sodium sulfate] + O |  |  |  |
